Data set [1] has as its system TNF-α, IFN-γ, IL-1, IL-2, IL-12 p40, RANTES mRNA. Put plainly: TNBS-induced colitis in mice, colonic mRNA of pro-inflammatory cytokines and chemokines by RT-PCR. The format is in vivo. The settings on record: dose equimolar to 50 mg/kg mesalamine; normalized to GAPDH, ratio to healthy controls. The method, then:
(§1) The same model was used as described above. In this example, the effects of mesalamine (50 mg/kg) were compared to those of equimolar doses of Compound XXXV. In addition to measuring the severity of colitis by measuring disease activity score and MPO activity, tissues were processed for measurement of a number of genes for inflammatory cytokines and other mediators.
(§2) In particular, mRNA expression in mice of tumour necrosis factor-alpha (TNF-α), interferon gamma (IFN-γ), colonic interleukin (IL)-1, IL-2, IL-10, IL-12 p40, RANTES, cyclooxygenase (COX)-1, COX-2, constitutive endothelial nitric oxide synthase (eNOS), and inducible NOS (iNOS) was measured as described in Wallace et al. (1999) Gastroenterology 117: 557-566, incorporated herein by reference.
(§3) Briefly, reverse transcription-polymerase chain reaction (RT-PCR) was used to detect and quantify mRNA of the particular cytokine/chemokine/enzyme. Glyceraldehyde-3-phosphate dehydrogenase (GAPDH) was used as the “housekeeping gene” for mRNA expression (i.e., as an internal control). For each sample, the ratio of the amplification of the target gene to the amplification of GAPDH (expression of each is measured by performing densitometry on gels) was obtained. […]

The test system of a further data set is COX-1 mRNA. In words: TNBS-induced colitis in mice, colonic COX-1 mRNA by RT-PCR. It counts as in vivo. The conditions noted are these: dose equimolar to 50 mg/kg mesalamine; FIG. 13. The method, then:
as §1, §2, §3

The subject of another data set is COX-2 mRNA. Put plainly: TNBS-induced colitis in mice, colonic COX-2 mRNA by RT-PCR. The format is in vivo. The settings on record: dose equimolar to 50 mg/kg mesalamine; FIG. 13. The method, then: as §1, §2, §3
The next data set has as its system eNOS mRNA. In words: TNBS-induced colitis in mice, colonic eNOS mRNA by RT-PCR. It counts as in vivo. The conditions noted are these: dose equimolar to 50 mg/kg mesalamine; FIG. 14. The method, then:
as §1, §2, §3

Data set [2] can be described thus: Viability of HT-29 human colon cancer cells, MTT assay. The format is cell-based. The settings on record: HT-29 colon cancer cells, 72 h exposure, HT-29, MTT, read-out: Cell viability rate as a percent of the vehicle (DMSO)-treated cells. The method, then: HT-29 cells were grown in culture using standard methods. The cells were exposed to vehicle (DMSO), mesalamine or Compound XXXV. Concentrations ranging from 0.1 to 10 μM were tested, with each concentration tested in 6 wells. At the end of 72 h of exposure to the test drugs, cell viability was measured using the MTT [3-(4,5-dimethylthiaxol-2-yl)-2,5-diphenyltetrazolium bromide] assay (Carmichael et al. (1978) Cancer Res. 47, 936-942), incorporated herein by reference.

Another data set has as its system colonic smooth muscle. Put plainly: Rat colorectal distension, intrarectal pressure / compliance of the colo-rectum. The format is in vivo. The conditions noted are these: 100 mg/kg i.p.; FIG. 16(b). From the text:
In the testing day, rats were sedated with ether inhalation and a 2 cm long latex balloon was inserted intrarectally 2 cm from the anal verge and fixed at the base of the tail. The balloon was connected via a double-barreled cannula to a pressure transducer to continuously monitoring the rectal pressure by a computer (PowerLab PC, A.D. Instruments, Milford, Mass., USA) and to a syringe for inflation/deflation of the balloon. The rats were then housed in a small cage (20×8×8 cm) on an elevated Plexiglas™ platform and allowed to wake up and adapt for 1 hour. After recovery from sedation, animals underwent the CRD procedure and behavioral responses were tested. The night before the experiments, the balloons were inflated and left overnight so the latex stretched and the balloons became compliant. CRD of 20 seconds, performed every 5 minutes, was applied in increment of 0.4 ml starting from 0.4 ml up to 1.6 ml water. […] Behavioral responses during the first and the second set of CRD were assessed and compared. To determine the effect of mesalamine or Compound XXXV on colonic smooth muscle, the compliance of the colo-rectum during CRD was obtained from intracolo-rectal volume and pressure and expressed as mL/mmHg. […]

Results on one molecule are retold here after patent US7910568B2, “Derivatives of 4- or 5-aminosalicylic acid” (Antibe Therapeutics Inc., priority 2005, dated 2011).

For orientation: viability means a read-out of living cells in per cent, often relative to untreated cells.

Take `Nc1ccc(O)c(C(=O)Oc2ccc(-c3cc(=S)ss3)cc2)c1` [Compound XXXV, 5-Amino-2-hydroxy-benzoic acid 4-(5-thioxo-5H-[1,2]dithiol-3-yl)-phenyl ester]: in data set [1], the “Expression of mRNA for pro-inflammatory cytokines and chemokines” value is “suppressed expression of mRNA for several pro-inflammatory cytokines and chemokines”. Further, the “COX-1 mRNA expression” value with COX-1 mRNA is “suppressed”. For the same molecule, the “COX-2 mRNA expression” value in the data set with COX-2 mRNA is recorded as “suppressed”. In addition, in the data set with eNOS mRNA, the “eNOS mRNA expression” value was “suppressed”. In data set [2] (0.1 μM), the viability at 72 h, 0.1 µM was 88.4 ± 2.9%. Further, the viability at 72 h, 1 µM in data set [2] (1 μM) amounted to 87.3 ± 2.3%. Moreover, in data set [2] (10 μM), the viability at 72 h, 10 µM is 79.6 ± 1.9%. Besides, in the data set on colonic smooth muscle, the Intrarectal pressure result is “successfully reduced intrarectal pressure”.
